Experimental data published in ChEMBL document CHEMBL4507275, “Data for DCP probe BI-2545” (2021).

Columns and labels:
[1] = biological target: cAMP-dependent protein kinase catalytic subunit PRKX (Homo sapiens) (UniProt P51817); conditions: Compound concentration 1000.0 nM
[2] = tested on: Tyrosine-protein kinase ABL1 (Homo sapiens), P00519 [F317I]; conditions: Compound concentration 1000.0 nM
[3] = biological target: Delta-type opioid receptor (Homo sapiens) (UniProt P41143); conditions: Compound concentration 10.0 uM
[4] = tested on: Phosphatidylinositol 4,5-bisphosphate 3-kinase catalytic subunit alpha isoform (Homo sapiens), P42336 [E542K]; conditions: Compound concentration 1000.0 nM
[5] = biological target: Tyrosine-protein kinase ITK/TSK (Homo sapiens) (UniProt Q08881); conditions: Compound concentration 1000.0 nM
Sequence of Tyrosine-protein kinase ITK/TSK (Homo sapiens) (Q08881 whole entry, canonical isoform): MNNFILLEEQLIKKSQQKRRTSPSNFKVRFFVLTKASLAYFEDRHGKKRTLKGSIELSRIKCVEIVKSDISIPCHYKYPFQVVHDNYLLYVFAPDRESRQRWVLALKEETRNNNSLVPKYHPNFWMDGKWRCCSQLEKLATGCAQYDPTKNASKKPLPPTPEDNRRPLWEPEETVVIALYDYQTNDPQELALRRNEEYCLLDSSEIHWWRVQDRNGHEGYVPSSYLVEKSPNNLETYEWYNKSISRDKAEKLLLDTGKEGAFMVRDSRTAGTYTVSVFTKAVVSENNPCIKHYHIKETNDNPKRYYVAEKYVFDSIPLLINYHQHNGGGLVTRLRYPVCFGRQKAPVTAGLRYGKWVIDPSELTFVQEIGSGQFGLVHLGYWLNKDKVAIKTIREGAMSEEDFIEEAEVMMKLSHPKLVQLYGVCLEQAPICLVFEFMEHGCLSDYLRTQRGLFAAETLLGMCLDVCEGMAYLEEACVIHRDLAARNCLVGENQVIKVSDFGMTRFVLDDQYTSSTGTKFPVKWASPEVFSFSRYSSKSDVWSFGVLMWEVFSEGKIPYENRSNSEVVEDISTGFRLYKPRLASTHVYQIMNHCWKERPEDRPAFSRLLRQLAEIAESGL

[6] = tested on: Phosphatidylinositol 4,5-bisphosphate 3-kinase catalytic subunit alpha isoform (Homo sapiens), P42336 [I800L]; conditions: Compound concentration 1000.0 nM
Sequence of Phosphatidylinositol 4,5-bisphosphate 3-kinase catalytic subunit alpha isoform (Homo sapiens), P42336 [I800L] (P42336 whole entry I800L, canonical isoform): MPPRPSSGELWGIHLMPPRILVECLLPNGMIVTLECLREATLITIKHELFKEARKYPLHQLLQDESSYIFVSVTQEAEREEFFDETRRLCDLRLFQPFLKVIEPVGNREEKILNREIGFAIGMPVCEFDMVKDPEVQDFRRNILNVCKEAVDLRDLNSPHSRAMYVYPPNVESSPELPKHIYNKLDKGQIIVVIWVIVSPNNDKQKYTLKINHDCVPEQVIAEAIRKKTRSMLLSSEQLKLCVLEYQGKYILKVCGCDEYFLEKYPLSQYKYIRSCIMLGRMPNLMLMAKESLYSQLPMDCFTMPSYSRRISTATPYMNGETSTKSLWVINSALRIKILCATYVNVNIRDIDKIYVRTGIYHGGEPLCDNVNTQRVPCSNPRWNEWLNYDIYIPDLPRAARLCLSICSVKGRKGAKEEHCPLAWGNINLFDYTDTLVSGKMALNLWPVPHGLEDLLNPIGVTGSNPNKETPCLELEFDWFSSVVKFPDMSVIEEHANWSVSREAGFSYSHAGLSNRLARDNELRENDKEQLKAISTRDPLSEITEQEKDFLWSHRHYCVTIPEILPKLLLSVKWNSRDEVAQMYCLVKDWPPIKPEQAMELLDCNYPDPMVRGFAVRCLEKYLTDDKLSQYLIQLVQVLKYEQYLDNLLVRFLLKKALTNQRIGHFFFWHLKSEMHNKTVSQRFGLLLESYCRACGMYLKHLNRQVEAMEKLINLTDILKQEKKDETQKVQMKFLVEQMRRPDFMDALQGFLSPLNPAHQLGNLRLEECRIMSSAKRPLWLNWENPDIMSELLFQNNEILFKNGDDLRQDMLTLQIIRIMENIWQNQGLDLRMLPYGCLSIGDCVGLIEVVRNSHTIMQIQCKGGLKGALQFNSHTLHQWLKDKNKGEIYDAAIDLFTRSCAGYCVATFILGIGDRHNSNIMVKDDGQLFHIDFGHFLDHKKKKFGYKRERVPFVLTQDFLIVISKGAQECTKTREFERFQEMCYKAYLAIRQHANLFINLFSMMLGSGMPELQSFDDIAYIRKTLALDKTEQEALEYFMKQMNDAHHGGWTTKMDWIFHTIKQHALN

[7] = biological target: T1, 5-hydroxytryptamine receptor 1A (Homo sapiens) (UniProt P08908); conditions: Compound concentration 10.0 uM
T1 sequence (whole entry): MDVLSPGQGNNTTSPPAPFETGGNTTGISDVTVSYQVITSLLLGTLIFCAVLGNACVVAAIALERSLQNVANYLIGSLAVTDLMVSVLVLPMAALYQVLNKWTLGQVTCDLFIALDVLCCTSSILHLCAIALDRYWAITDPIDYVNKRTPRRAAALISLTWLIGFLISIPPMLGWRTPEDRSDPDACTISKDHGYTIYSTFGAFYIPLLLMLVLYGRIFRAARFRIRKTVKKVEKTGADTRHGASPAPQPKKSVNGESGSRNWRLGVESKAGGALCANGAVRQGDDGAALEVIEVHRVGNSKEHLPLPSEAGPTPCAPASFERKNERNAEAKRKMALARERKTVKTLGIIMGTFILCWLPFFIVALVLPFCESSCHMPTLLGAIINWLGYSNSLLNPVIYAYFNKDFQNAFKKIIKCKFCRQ

[8] = biological target: Serine/threonine-protein kinase Nek6 (Homo sapiens) (UniProt Q9HC98); conditions: Compound concentration 1000.0 nM
[9] = biological target: Homeodomain-interacting protein kinase 4 (Homo sapiens) (UniProt Q8NE63); conditions: Compound concentration 1000.0 nM
[10] = biological target: Mitogen-activated protein kinase kinase kinase 1 (Homo sapiens) (UniProt Q13233); conditions: Compound concentration 1000.0 nM
[11] = biological target: Casein kinase I isoform alpha-like (Homo sapiens) (UniProt Q8N752); conditions: Compound concentration 1000.0 nM
[12] = tested on: Mast/stem cell growth factor receptor Kit (Homo sapiens), P10721 [V559D]; conditions: Compound concentration 1000.0 nM
[13] = biological target: ALK tyrosine kinase receptor (Homo sapiens) (UniProt Q9UM73); conditions: Compound concentration 1000.0 nM
[14] = biological target: RAC-alpha serine/threonine-protein kinase (Homo sapiens) (UniProt P31749); conditions: Compound concentration 1000.0 nM
[15] = biological target: Proto-oncogene tyrosine-protein kinase receptor Ret (Homo sapiens) (UniProt P07949); conditions: Compound concentration 1000.0 nM
[16] = biological target: Mitogen-activated protein kinase 14 (Homo sapiens) (UniProt Q16539); conditions: Compound concentration 1000.0 nM
[17] = biological target: Serine/threonine-protein kinase Nek2 (Homo sapiens) (UniProt P51955); conditions: Compound concentration 1000.0 nM
Sequence of Serine/threonine-protein kinase Nek2 (Homo sapiens) (P51955 whole entry): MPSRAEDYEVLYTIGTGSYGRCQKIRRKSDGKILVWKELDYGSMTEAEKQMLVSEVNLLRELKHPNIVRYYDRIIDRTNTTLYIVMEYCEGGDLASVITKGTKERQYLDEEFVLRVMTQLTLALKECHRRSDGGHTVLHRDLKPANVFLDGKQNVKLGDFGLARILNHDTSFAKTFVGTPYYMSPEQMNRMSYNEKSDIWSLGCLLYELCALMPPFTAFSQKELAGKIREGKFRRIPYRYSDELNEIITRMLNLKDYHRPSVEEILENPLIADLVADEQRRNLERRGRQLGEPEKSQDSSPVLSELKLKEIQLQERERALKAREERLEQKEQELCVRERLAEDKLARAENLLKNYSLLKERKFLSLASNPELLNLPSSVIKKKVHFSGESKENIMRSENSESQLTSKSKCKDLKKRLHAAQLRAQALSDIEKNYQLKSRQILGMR

[18] = biological target: Leukocyte tyrosine kinase receptor (Homo sapiens) (UniProt P29376); conditions: Compound concentration 1000.0 nM
[19] = biological target: Bone morphogenetic protein receptor type-1B (Homo sapiens) (UniProt O00238); conditions: Compound concentration 1000.0 nM
[20] = biological target: Serine/threonine-protein kinase RIO3 (Homo sapiens) (UniProt O14730); conditions: Compound concentration 1000.0 nM
[21] = biological target: Homeodomain-interacting protein kinase 3 (Homo sapiens) (UniProt Q9H422); conditions: Compound concentration 1000.0 nM
[22] = biological target: Rhodopsin kinase GRK1 (Homo sapiens) (UniProt Q15835); conditions: Compound concentration 1000.0 nM
[23] = biological target: Dual specificity protein kinase CLK1 (Homo sapiens) (UniProt P49759); conditions: Compound concentration 1000.0 nM
[24] = biological target: Mitogen-activated protein kinase kinase kinase 15 (Homo sapiens) (UniProt Q6ZN16); conditions: Compound concentration 1000.0 nM
Sequence of Mitogen-activated protein kinase kinase kinase 15 (Homo sapiens) (Q6ZN16 whole entry): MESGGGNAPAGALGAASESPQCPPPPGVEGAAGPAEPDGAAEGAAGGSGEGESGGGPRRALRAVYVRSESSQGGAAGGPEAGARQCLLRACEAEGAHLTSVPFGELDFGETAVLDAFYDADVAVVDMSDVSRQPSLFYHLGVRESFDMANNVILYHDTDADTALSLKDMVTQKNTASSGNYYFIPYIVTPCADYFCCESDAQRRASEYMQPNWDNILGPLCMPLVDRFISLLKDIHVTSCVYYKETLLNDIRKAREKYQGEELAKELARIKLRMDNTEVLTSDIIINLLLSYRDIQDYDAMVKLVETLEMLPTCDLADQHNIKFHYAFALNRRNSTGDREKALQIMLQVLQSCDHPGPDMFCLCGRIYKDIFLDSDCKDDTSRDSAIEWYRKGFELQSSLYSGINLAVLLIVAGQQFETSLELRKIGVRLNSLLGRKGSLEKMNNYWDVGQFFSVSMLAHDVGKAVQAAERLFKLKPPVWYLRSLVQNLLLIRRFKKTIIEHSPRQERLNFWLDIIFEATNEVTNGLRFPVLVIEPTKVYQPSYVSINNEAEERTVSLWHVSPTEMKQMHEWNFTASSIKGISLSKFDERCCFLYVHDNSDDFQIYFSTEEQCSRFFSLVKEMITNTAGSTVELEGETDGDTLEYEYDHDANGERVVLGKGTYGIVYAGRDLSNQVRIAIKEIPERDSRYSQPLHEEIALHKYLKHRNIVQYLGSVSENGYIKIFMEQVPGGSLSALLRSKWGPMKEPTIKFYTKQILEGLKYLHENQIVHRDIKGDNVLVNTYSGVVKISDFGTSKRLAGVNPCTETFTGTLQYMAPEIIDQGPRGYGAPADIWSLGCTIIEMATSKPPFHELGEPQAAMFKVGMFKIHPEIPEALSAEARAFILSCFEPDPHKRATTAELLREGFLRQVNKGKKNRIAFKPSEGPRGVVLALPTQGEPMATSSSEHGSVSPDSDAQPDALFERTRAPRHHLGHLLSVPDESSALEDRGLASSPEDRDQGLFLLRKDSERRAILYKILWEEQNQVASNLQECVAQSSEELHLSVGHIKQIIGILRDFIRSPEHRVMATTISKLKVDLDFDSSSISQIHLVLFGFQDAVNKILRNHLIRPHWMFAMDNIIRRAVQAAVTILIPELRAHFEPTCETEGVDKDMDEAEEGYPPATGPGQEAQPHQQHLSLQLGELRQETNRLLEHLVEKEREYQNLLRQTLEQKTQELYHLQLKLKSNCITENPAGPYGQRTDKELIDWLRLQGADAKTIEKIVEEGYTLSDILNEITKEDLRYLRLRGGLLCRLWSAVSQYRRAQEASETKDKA

[25] = biological target: Ephrin type-B receptor 3 (Homo sapiens) (UniProt P54753); conditions: Compound concentration 1000.0 nM
[26] = biological target: Mitogen-activated protein kinase kinase kinase kinase 5 (Homo sapiens) (UniProt Q9Y4K4); conditions: Compound concentration 1000.0 nM
[27] = biological target: Tyrosine-protein kinase Mer (Homo sapiens) (UniProt Q12866); conditions: Compound concentration 1000.0 nM
[28] = biological target: Dual specificity mitogen-activated protein kinase kinase 2 (Homo sapiens) (UniProt P36507); conditions: Compound concentration 1000.0 nM
[29] = biological target: Serine/threonine-protein kinase tousled-like 2 (Homo sapiens) (UniProt Q86UE8); conditions: Compound concentration 1000.0 nM
[30] = biological target: Ribosomal protein S6 kinase alpha-3 (Homo sapiens) (UniProt P51812); conditions: Compound concentration 1000.0 nM
[31] = biological target: Serine/threonine-protein kinase NIM1 (Homo sapiens) (UniProt Q8IY84); conditions: Compound concentration 1000.0 nM
Sequence of Serine/threonine-protein kinase NIM1 (Homo sapiens) (Q8IY84 whole entry): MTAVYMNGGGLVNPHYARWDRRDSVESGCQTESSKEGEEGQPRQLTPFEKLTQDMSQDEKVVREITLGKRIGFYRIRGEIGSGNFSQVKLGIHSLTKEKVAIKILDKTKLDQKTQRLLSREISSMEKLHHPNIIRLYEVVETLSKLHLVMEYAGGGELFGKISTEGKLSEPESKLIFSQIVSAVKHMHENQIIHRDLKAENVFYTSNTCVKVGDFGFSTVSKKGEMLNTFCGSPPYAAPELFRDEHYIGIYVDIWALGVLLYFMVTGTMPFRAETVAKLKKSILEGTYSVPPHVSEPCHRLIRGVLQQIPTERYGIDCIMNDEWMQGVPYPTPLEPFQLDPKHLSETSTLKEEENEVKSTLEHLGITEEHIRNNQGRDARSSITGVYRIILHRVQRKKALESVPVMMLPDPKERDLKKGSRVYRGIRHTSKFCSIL

[32] = biological target: Hepatocyte growth factor receptor (Homo sapiens) (UniProt P08581); conditions: Compound concentration 1000.0 nM
[33] = biological target: Tyrosine-protein kinase SYK (Homo sapiens) (UniProt P43405); conditions: Compound concentration 1000.0 nM
[34] = biological target: Atypical kinase COQ8A, mitochondrial (Homo sapiens) (UniProt Q8NI60); conditions: Compound concentration 1000.0 nM
[35] = biological target: Cyclin-dependent kinase-like 2 (Homo sapiens) (UniProt Q92772); conditions: Compound concentration 1000.0 nM
[36] = biological target: Beta-3 adrenergic receptor (Homo sapiens) (UniProt P13945); conditions: Compound concentration 10.0 uM
[37] = tested on: Epidermal growth factor receptor (Homo sapiens), P00533 [UNDEFINED MUTATION]; conditions: Compound concentration 1000.0 nM
[38] = biological target: Cyclin-dependent kinase 15 (Homo sapiens) (UniProt Q96Q40); conditions: Compound concentration 1000.0 nM
[39] = biological target: Serine/threonine-protein kinase SIK1 (Homo sapiens) (UniProt P57059); conditions: Compound concentration 1000.0 nM

Sequence of Tyrosine-protein kinase ABL1 (Homo sapiens), P00519 [F317I] (P00519 whole entry F317I): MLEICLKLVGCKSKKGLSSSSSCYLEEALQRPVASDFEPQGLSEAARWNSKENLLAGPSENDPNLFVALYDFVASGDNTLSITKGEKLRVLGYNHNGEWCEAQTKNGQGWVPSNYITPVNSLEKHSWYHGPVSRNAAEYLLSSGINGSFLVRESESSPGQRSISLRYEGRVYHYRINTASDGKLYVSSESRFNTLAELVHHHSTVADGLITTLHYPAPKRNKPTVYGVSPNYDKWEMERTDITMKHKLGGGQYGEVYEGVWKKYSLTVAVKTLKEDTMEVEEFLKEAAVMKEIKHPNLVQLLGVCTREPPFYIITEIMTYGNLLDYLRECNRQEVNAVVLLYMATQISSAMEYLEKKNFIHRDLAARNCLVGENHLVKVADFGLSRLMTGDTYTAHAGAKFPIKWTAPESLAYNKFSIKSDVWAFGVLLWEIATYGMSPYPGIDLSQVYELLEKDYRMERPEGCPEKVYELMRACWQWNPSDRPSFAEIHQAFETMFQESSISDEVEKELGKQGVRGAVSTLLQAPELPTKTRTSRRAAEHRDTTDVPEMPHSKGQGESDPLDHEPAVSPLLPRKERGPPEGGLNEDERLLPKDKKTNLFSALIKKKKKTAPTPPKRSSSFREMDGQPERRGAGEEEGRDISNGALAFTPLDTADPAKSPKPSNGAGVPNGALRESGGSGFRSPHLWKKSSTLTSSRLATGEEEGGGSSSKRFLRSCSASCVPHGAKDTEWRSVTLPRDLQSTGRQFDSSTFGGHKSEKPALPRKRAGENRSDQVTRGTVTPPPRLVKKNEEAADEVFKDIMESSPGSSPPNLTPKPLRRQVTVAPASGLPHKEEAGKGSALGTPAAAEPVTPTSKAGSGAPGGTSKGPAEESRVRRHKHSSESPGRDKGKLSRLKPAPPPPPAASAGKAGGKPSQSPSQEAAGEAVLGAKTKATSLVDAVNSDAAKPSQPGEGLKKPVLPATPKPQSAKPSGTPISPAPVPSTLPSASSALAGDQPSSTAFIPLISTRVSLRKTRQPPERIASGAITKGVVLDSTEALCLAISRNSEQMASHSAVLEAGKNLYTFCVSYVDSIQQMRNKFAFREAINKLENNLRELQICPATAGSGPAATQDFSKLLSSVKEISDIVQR

O=C(NC[C@@H]1[C@H]2CN(C(=O)OCc3cc(C(F)(F)F)cc(C(F)(F)F)c3)C[C@@H]12)c1ccc2[nH]nnc2c1 [BI 2545]
inactive: residual activity [1] 86% | residual activity [2] 88% | inhibition [3] 19.6% | residual activity [4] 75% | residual activity [5] 100% | residual activity [6] 83% | inhibition [7] 0.91% | residual activity [8] 100% | residual activity [9] 100% | residual activity [10] 71% | residual activity [11] 86% | residual activity [12] 88% | residual activity [13] 79% | residual activity [14] 100% | residual activity [15] 100% | residual activity [16] 100% | residual activity [17] 100% | residual activity [18] 98% | residual activity [19] 95% | residual activity [20] 94% | residual activity [21] 89% | residual activity [22] 90% | residual activity [23] 87% | residual activity [24] 53% | residual activity [25] 81% | residual activity [26] 97% | residual activity [27] 100% | residual activity [28] 84% | residual activity [29] 90% | residual activity [30] 94% | residual activity [31] 100% | residual activity [32] 100% | residual activity [33] 100% | residual activity [34] 100% | residual activity [35] 95% | inhibition [36] 31.5% | residual activity [37] 89% | residual activity [38] 75% | residual activity [39] 100%

Cc1nccc(COC(=O)N2C[C@@H]3[C@@H](CNC(=O)c4ccc5[nH]nnc5c4)[C@@H]3C2)n1 [BI 3017]
inactive: residual activity [1] 100% | residual activity [2] 81% | inhibition [3] -1.41% | residual activity [4] 86% | residual activity [5] 100% | residual activity [6] 73% | inhibition [7] -7.66% | residual activity [8] 100% | residual activity [9] 84% | residual activity [10] 85% | residual activity [11] 100% | residual activity [12] 86% | residual activity [13] 87% | residual activity [14] 100% | residual activity [15] 93% | residual activity [16] 100% | residual activity [17] 100% | residual activity [18] 93% | residual activity [19] 100% | residual activity [20] 100% | residual activity [21] 76% | residual activity [22] 100% | residual activity [23] 100% | residual activity [24] 95% | residual activity [25] 100% | residual activity [26] 100% | residual activity [27] 100% | residual activity [28] 84% | residual activity [29] 100% | residual activity [30] 100% | residual activity [31] 87% | residual activity [32] 94% | residual activity [33] 100% | residual activity [34] 84% | residual activity [35] 95% | inhibition [36] -6.02% | residual activity [37] 71% | residual activity [38] 100% | residual activity [39] 98%
